The source of these data is US20050159596A1, “Cyclic compounds and their use as complex ligands” (Basf Aktiengesellschaft, priority 2002, published 2005).

As usually defined, the solubility is the dissolved amount per volume that the medium holds. As usually defined, the melting point is the temperature of the solid-liquid transition.

Data set [1] is described as follows: Solubility in organic solvents. The settings on record: for solubility in organic solvents (in words): all organic solvents; for solubility (in words): compared with methanol, ethanol and acetonitrile; for solubility: organic solvent or mixture. In kind it is physicochemical.

A value given as a limit tells only on which side of the number the result lay.

`c1cc2c3oc(nc3c1)-c1cccc3nc(oc13)-c1cccc3nc(oc13)-c1cccc3nc-2oc13` [Compound 5, Cyclo-2,7′:2′,7″:2′″,7′″:2′″,7-quaterbenzoxazole]: the “solubility in organic solvents (in words)” value in data set [1] is “very limited solubility”.

As to `c1cc2c3[nH]c(nc3c1)-c1cccc3nc([nH]c13)-c1cccc3nc([nH]c13)-c1cccc3nc-2[nH]c13` [Compound 8, Cyclo-2,4′:2′,7″:2″4′″:2′″,7-quaterbenzimidazole], the “solubility in organic solvents (in words)” value in data set [1] was “even lower solubility in organic solvents than compound (5)”.

`c1cc(-c2cccc3nc(-c4nc5cccc(-c6cccc7ncoc67)c5o4)oc23)c2ocnc2c1` [Compound 13, 7,7′:2′,2″:7′″,7′″-Quaterbenzoxazole] displayed a melting point of 358 to 362 °C. Further, the “solubility (in words)” value in data set [1] (in chloroform) was “improved”. The “solubility (in words)” value in data set [1] (in dimethylformide) is recorded as “improved”. For the same molecule, in data set [1] (in acetonitrile), the solubility is less than 1 µM. Besides, the solubility in data set [1] (in ethanol) was less than 1 µM. The solubility in data set [1] (in methanol) was less than 1 µM.
